Legend:
U-698-M = conditions: B-Cell Non-Hodgkin's Lymphoma
Summary of the method: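 After 24 hours at 37°C and 5% CO2 in 1536-well plates holding 7.5 μl of DMEM/F12 or RPMI with 10% FBS, cancer cell lines were dosed for 72 hours, with final DMSO typically 0.2%. Viability came from CellTiter-Glo 2.0 luminescence, scaled between the means of blank wells and DMSO wells. A non-linear mixed effects model fitted a two-parameter logistic curve to each dose response to give the single-agent IC50.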

LN-405 (Glioblastoma) [1] = assay: Bliss excess, mean over the matrix (fraction); higher = more synergy
Summary of the method: (§1)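 Cell lines grown in DMEM/F12 or RPMI with 10% FBS were plated in 1536-well plates and held 24 hours at 37°C, 5% CO2 before 72 hours of exposure to two-drug dose matrices, with DMSO typically at 0.2%. CellTiter-Glo 2.0 luminescence gave viability, which was converted to inhibition. Vehicle wells were set to 0 and blank wells to 1. Combination Emax is the second-highest inhibition in the matrix, and Bliss excess is the observed combination effect minus the expected EA + EB − EA·EB, where EA and EB are the single-agent effects.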

[2] = test system: KARPAS-422 (B-Cell Non-Hodgkin's Lymphoma); assay: as above
Summary of the method: as §1

NCI-H2591 (Mesothelioma) [3] = assay: as above
Summary of the method: as §1

[4] = test system: CAPAN-2 (Pancreatic Carcinoma); assay: as above
Summary of the method: as §1

[5] = test system: ECC10 (Gastric Carcinoma); assay: as above
Summary of the method: as §1

[6] = test system: NCI-H1581 (Non-Small Cell Lung Carcinoma); assay: as above
Summary of the method: as §1

FU97 (Gastric Carcinoma) [7] = assay: as above
Summary of the method: as §1

[8] = test system: HCC1954 (Breast Carcinoma); assay: as above
Summary of the method: as §1

U-2-OS (Osteosarcoma) [9] = assay: as above
Summary of the method: as §1

NY (Osteosarcoma) [10] = assay: as above
Summary of the method: as §1

[11] = test system: VCaP (Prostate Carcinoma); assay: as above
Summary of the method: as §1

IGR-37 (Melanoma) [12] = assay: as above
Summary of the method: as §1

[13] = test system: COLO-320-HSR (Colorectal Carcinoma); assay: as above
Summary of the method: as §1

[14] = test system: NCI-H64 (Small Cell Lung Carcinoma); assay: as above
Summary of the method: as §1

[15] = test system: ONS-76 (Other Solid Carcinomas); assay: as above
Summary of the method: as §1

[16] = test system: TT (Thyroid Gland Carcinoma); assay: as above
Summary of the method: as §1

[17] = test system: CCK-81 (Colorectal Carcinoma); assay: as above
Summary of the method: as §1

[18] = test system: PANC-10-05 (Pancreatic Carcinoma); assay: as above
Summary of the method: as §1

[19] = test system: BICR22 (Oral Cavity Carcinoma); assay: as above
Summary of the method: as §1

[20] = test system: NCI-H1666 (Lung Adenocarcinoma); assay: as above
Summary of the method: as §1

[21] = test system: NCI-H2066 (Squamous Cell Lung Carcinoma); assay: as above
Summary of the method: as §1

LN-405 (Glioblastoma) [22] = assay: combination Emax (second highest fraction inhibited in the dose matrix, 72 h); higher = more inhibition; extreme values may be limits of the assay
Summary of the method: as §1

[23] = test system: KARPAS-422 (B-Cell Non-Hodgkin's Lymphoma); assay: as above
Summary of the method: as §1

NCI-H2591 (Mesothelioma) [24] = assay: as above
Summary of the method: as §1

[25] = test system: CAPAN-2 (Pancreatic Carcinoma); assay: as above
Summary of the method: as §1

[26] = test system: ECC10 (Gastric Carcinoma); assay: as above
Summary of the method: as §1

[27] = test system: NCI-H1581 (Non-Small Cell Lung Carcinoma); assay: as above
Summary of the method: as §1

FU97 (Gastric Carcinoma) [28] = assay: as above
Summary of the method: as §1

[29] = test system: HCC1954 (Breast Carcinoma); assay: as above
Summary of the method: as §1

U-2-OS (Osteosarcoma) [30] = assay: as above
Summary of the method: as §1

NY (Osteosarcoma) [31] = assay: as above
Summary of the method: as §1

[32] = test system: VCaP (Prostate Carcinoma); assay: as above
Summary of the method: as §1

IGR-37 (Melanoma) [33] = assay: as above
Summary of the method: as §1

[34] = test system: COLO-320-HSR (Colorectal Carcinoma); assay: as above
Summary of the method: as §1

[35] = test system: NCI-H64 (Small Cell Lung Carcinoma); assay: as above
Summary of the method: as §1

[36] = test system: ONS-76 (Other Solid Carcinomas); assay: as above
Summary of the method: as §1

[37] = test system: TT (Thyroid Gland Carcinoma); assay: as above
Summary of the method: as §1

[38] = test system: CCK-81 (Colorectal Carcinoma); assay: as above
Summary of the method: as §1

[39] = test system: PANC-10-05 (Pancreatic Carcinoma); assay: as above
Summary of the method: as §1

[40] = test system: BICR22 (Oral Cavity Carcinoma); assay: as above
Summary of the method: as §1

[41] = test system: NCI-H1666 (Lung Adenocarcinoma); assay: as above
Summary of the method: as §1

[42] = test system: NCI-H2066 (Squamous Cell Lung Carcinoma); assay: as above
Summary of the method: as §1
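Wherever Bliss excess, mean over the matrix is given: after 72 h of two-drug dosing.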

O=C(Nc1ccc2[nH]nc(-c3ccncc3)c2c1)[C@@H]1CCN(CC(=O)N2CCN(c3ccc(-c4ncccn4)cc3)CC2)C1
IC50, cell viability 72 h (U-698-M; max 5 µM): > 5 µM

O=c1[nH]cc(F)c(=O)[nH]1 [5-Fluorouracil]
IC50, cell viability 72 h (U-698-M; max 20 µM): > 20 µM

CN(C)CCCOc1ccc(-c2ccc3ncc4c(c3c2)n(C2CCOCC2)c(=O)n4C)cn1 [AZD0156]
IC50, cell viability 72 h (U-698-M; max 3 µM): > 3 µM

CC(C)n1c(=O)n(C)c2cnc3cc(F)c(-c4ccc(OCCCN5CCCCC5)nc4)cc3c21 [AZD1390]
IC50, cell viability 72 h (U-698-M; max 0.3 µM): > 0.3 µM

C=CCn1c(=O)c2cnc(Nc3ccc(N4CCN(C)CC4)cc3)nc2n1-c1cccc(C(C)(C)O)n1 [AZD1775]
IC50, cell viability 72 h (U-698-M; max 3 µM): 0.26 µM

CCN(CCO)CCCOc1ccc2c(Nc3cc(CC(=O)Nc4cccc(F)c4)[nH]n3)ncnc2c1 [AZD2811]
IC50, cell viability 72 h (U-698-M; max 1 µM): > 1 µM

CN(CCO)CC[C@H](CSc1ccccc1)Nc1ccc(S(=O)(=O)NC(=O)c2ccc(N3CCC([C@@H](O)c4ccccc4-c4ccc(Cl)cc4)CC3)cc2)cc1S(=O)(=O)C(F)(F)F [AZD4320]
IC50, cell viability 72 h (U-698-M; max 1 µM): > 1 µM

COc1nnc2ccc(N3CCC(c4ccc(OCCN5CCN(C)C(=O)[C@H]5C)cc4)CC3)nn12 [AZD5153]
IC50, cell viability 72 h (U-698-M; max 1 µM): 0.265 µM

NC1(C(=O)N[C@@H](CCO)c2ccc(Cl)cc2)CCN(c2ncnc3[nH]ccc23)CC1 [AZD5363]
IC50, cell viability 72 h (U-698-M; max 10 µM): 8.27 µM

CS(=O)(=O)CCNCc1ccc(-c2ccc3ncnc(Nc4ccc(OCc5cccc(F)c5)c(Cl)c4)c3c2)o1 [Lapatinib] + NC1(c2ccc(-c3nc4ccn5c(=O)[nH]nc5c4cc3-c3ccccc3)cc2)CCC1 [MK-2206] (first compound max 10 µM, 7x7, partner max 10 µM)
Bliss excess (LN-405 (Glioblastoma) [1]): -0.0277 | Bliss excess [2]: -0.0122 | Bliss excess (NCI-H2591 (Mesothelioma) [3]): -0.0408 | Bliss excess [4]: -0.0098 | Bliss excess [5]: 0.0211 | Bliss excess [6]: -0.0046 | Bliss excess (FU97 (Gastric Carcinoma) [7]): 0.0294 | Bliss excess [8]: 0.0952 | Bliss excess (U-2-OS (Osteosarcoma) [9]): -0.029 | Bliss excess (NY (Osteosarcoma) [10]): 0.0087 | Bliss excess [11]: -0.0421 | Bliss excess (IGR-37 (Melanoma) [12]): 0.0428 | Bliss excess [13]: 0.0102 | Bliss excess [14]: 0.022 | Bliss excess [15]: 0.0048 | Bliss excess [16]: -0.0043 | Bliss excess [17]: 0.0908 | Bliss excess [18]: -0.0218 | Bliss excess [19]: 0.0346 | Bliss excess [20]: -0.0093 | Bliss excess [21]: 0.0521 | combination Emax (LN-405 (Glioblastoma) [22]): 0.789 | combination Emax [23]: 0.986 | combination Emax (NCI-H2591 (Mesothelioma) [24]): 0.418 | combination Emax [25]: 0.299 | combination Emax [26]: 0.972 | combination Emax [27]: 0.462 | combination Emax (FU97 (Gastric Carcinoma) [28]): 0.795 | combination Emax [29]: 0.939 | combination Emax (U-2-OS (Osteosarcoma) [30]): 0.257 | combination Emax (NY (Osteosarcoma) [31]): 0.246 | combination Emax [32]: 0.478 | combination Emax (IGR-37 (Melanoma) [33]): 0.901 | combination Emax [34]: 0.925 | combination Emax [35]: 0.533 | combination Emax [36]: 0.783 | combination Emax [37]: 0.625 | combination Emax [38]: 0.985 | combination Emax [39]: 0.613 | combination Emax [40]: 0.93 | combination Emax [41]: 0.898 | combination Emax [42]: 0.659

N#Cc1cnc(Nc2cc(NC[C@H]3CNCCO3)c(C(F)(F)F)cn2)cn1 [SRA737] + Nc1ccn([C@@H]2O[C@H](CO)[C@@H](O)C2(F)F)c(=O)n1 [Gemcitabine] (first compound max 10 µM, 7x7, partner max 0.3 µM)
Bliss excess [2]: 0.0409 | Bliss excess [4]: 0.0141 | Bliss excess [5]: 0.0624 | Bliss excess [6]: 0.176 | Bliss excess (FU97 (Gastric Carcinoma) [7]): -0.0494 | Bliss excess (U-2-OS (Osteosarcoma) [9]): 0.051 | Bliss excess (NY (Osteosarcoma) [10]): -0.0439 | Bliss excess [11]: -0.0259 | Bliss excess (IGR-37 (Melanoma) [12]): -0.09 | Bliss excess [13]: 0.0911 | Bliss excess [14]: 0.0476 | Bliss excess [15]: -0.0843 | Bliss excess [16]: -0.0551 | Bliss excess [17]: -0.0976 | Bliss excess [18]: 0.0598 | Bliss excess [19]: 0.0636 | Bliss excess [20]: 0.0128 | Bliss excess [21]: -0.0332 | combination Emax [23]: 0.852 | combination Emax [25]: 0.319 | combination Emax [26]: 0.859 | combination Emax [27]: 0.957 | combination Emax (FU97 (Gastric Carcinoma) [28]): 0.318 | combination Emax (U-2-OS (Osteosarcoma) [30]): 0.829 | combination Emax (NY (Osteosarcoma) [31]): 0.808 | combination Emax [32]: 0.77 | combination Emax (IGR-37 (Melanoma) [33]): 0.782 | combination Emax [34]: 0.815 | combination Emax [35]: 0.863 | combination Emax [36]: 0.811 | combination Emax [37]: 0.469 | combination Emax [38]: 0.859 | combination Emax [39]: 0.584 | combination Emax [40]: 0.946 | combination Emax [41]: 0.54 | combination Emax [42]: 0.208

From the supplement of paper PMC11061612
